Test results from article PMC11412489, “Coumarin derivatives as new anti-biofilm agents against Staphylococcus aureus” (PLOS ONE, 2024).
“Also recorded” adds a separate entry of the source.

How the values were obtained:
[1] = tested on: biofilm of S. aureus ATCC 6538; assay: 96-well plate crystal violet assay for biofilm inhibition; format: cell-based, Staphylococcus aureus; conditions: at 100 μg/mL, biofilm of S. aureus, 24 hours; for inhibition at 100 µg/mL: Staphylococcus aureus, ATCC6538, read-out: Antibiofilm Activity (% Inhibition ± SEM)
Protocol: The quantitative determination of biofilm inhibition was carried out by the crystal violet assay on a sterile 96-well plate with slight modifications. The glycerol stock of S. aureus was revived overnight at 37°C at 80 rpm. The overnight culture was then diluted 100 folds in fresh BHI broth, supplemented with 0.25% glucose. The cell density was adjusted to 1×10^7 and 195μL of the cell suspension was added in 96-well plate. […] Following that, the plate was washed with sterile distilled water in order to decant the non-adherent cells, and media. The plate was then dried at 60°C for 1 hour, and 200 μL of 0.1% (w/v) crystal violet was added to stain biofilm for 20 minutes. The plate was washed again, air dried, and dispensed 30% (v/v) acetic acid in each well to dissolve the biofilm. The inhibition of biofilm formation was analyzed by measuring the absorbance at 595 nm using the microplate reader (Multiskan Sky, Thermo Scientific, USA). The percent inhibition of biofilm formation was calculated via the following formula: 100−ƛTreated−ƛBlank/ƛControl−ƛBlank×100 Whereƛ=absorbance

S. aureus = assay: Antibacterial activity (bacterial growth inhibition); format: cell-based, Staphylococcus aureus; conditions: at 100 μg/mL; for inhibition at 100 µg/mL: Staphylococcus aureus, read-out: Antibacterial Activity (% Inhibition ± SEM)

Compound	inhibition at 100 µg/mL [1]	Antibiofilm Activity (% Inhibition ± SEM) [1]	inhibition at 100 µg/mL (S. aureus)	Antibacterial Activity (% Inhibition ± SEM) (S. aureus)
C/C(=N\NC(N)=S)c1cc2ccccc2oc1=O [Compound 9, (E)-2-(1-(2-Oxo-2H-chromen-3-yl)ethylidene)hydrazinecarbothioamide]	22%	No Inhibition	55 ± 5.43%	
Cc1ccc2oc(=O)c(/C=N/Nc3nc(-c4ccc(Br)cc4)cs3)c(Cl)c2c1 [Compound 6, (E)-3-((2-(4-(4-Bromophenyl)thiazol-2-yl)hydrazono)methyl)-4-chloro-6-methyl-2H-chromen-2-one]	61 ± 4.05%	induced biofilm inhibition; also recorded: dual anti-bacterial and anti-biofilm effect	72 ± 7.22%	
C/C(=N\Nc1nc(-c2ccc(C#N)cc2)cs1)c1cc2ccccc2oc1=O [Compound 14, (E)-4-(2-(2-(1-(2-Oxo-2H-chromen-3-yl)ethylidene)hydrazinyl)thiazol-4-yl)benzonitrile]	68 ± 6.63%	induced biofilm inhibition; also recorded: dual anti-bacterial and anti-biofilm effect	61 ± 9.33%	
Cc1ccc2oc(=O)c(/C=N/NC(N)=S)c(Cl)c2c1 [Compound 1, (E)-2-((4-Chloro-6-methyl-2-oxo-2H-chromen-3-yl)methylene)hydrazinecarbothioamide]		inactive		inactive
Cc1ccc2oc(=O)c(/C=N/Nc3nc(-c4ccc(Cl)cc4)cs3)c(Cl)c2c1 [Compound 7, (E)-4-Chloro-3-((2-(4-(4-chlorophenyl)thiazol-2-yl)hydrazono)methyl)-6-methyl-2H-chromen-2-one]		No Inhibition	41 ± 11.1%	
O=c1oc2ccccc2cc1-c1csc(N/N=C/c2ccccc2)n1 [Compound 16, (E)-3-(2-(2-Benzylidenehydrazinyl)thiazol-4-yl)-2H-chromen-2-one]		No inhibition		
Cc1ccc2oc(=O)c(/C=N/Nc3nc(-c4ccc(Cl)cc4Cl)cs3)c(Cl)c2c1 [Compound 5, (E)-4-Chloro-3-((2-(4-(2,4-dichlorophenyl)thiazol-2-yl)hydrazono)methyl)-6-methyl-2H-chromen-2-one]		No Inhibition	36 ± 8.77%	
COc1ccc(-c2csc(N/N=C/c3c(Cl)c4cc(C)ccc4oc3=O)n2)cc1 [Compound 8, (E)-4-Chloro-3-((2-(4-(4-methoxyphenyl)thiazol-2-yl)hydrazono)methyl)-6-methyl-2H-chromen-2-one]	66 ± 5.11%	induced biofilm inhibition; also recorded: dual anti-bacterial and anti-biofilm effect	52 ± 5.08%	
O=c1oc2ccccc2cc1-c1csc(N/N=C/c2ccc(Cl)cc2)n1 [Compound 19, (E)-3-(2-(2-(4-Chlorobenzylidene)hydrazinyl)thiazol-4-yl)-2H-chromen-2-one]	37 ± 6.98%			No Inhibition
C/C(=N\Nc1nc(-c2cccc([N+](=O)[O-])c2)cs1)c1cc2ccccc2oc1=O [Compound 13, (E)-3-(1-(2-(4-(3-Nitrophenyl)thiazol-2-yl) hydrazono)ethyl)-2H-chromen-2-one]		No Inhibition		No Inhibition
O=c1oc2ccccc2cc1-c1csc(N/N=C/c2ccc(Cl)cc2Cl)n1 [Compound 20, (E)-3-(2-(2-(2,4-Dichlorobenzylidene)hydrazinyl)thiazol-4-yl)-2H-chromen-2-one]		No Inhibition		
O=c1oc2ccccc2cc1-c1csc(N/N=C/c2ccccc2[N+](=O)[O-])n1 [Compound 21, (E)-3-(2-(2-(2-Nitrobenzylidene)hydrazinyl)thiazol-4-yl)-2H-chromen-2-one]		No Inhibition		
C/C(=N\Nc1nc(-c2ccc(Cl)c(Cl)c2)cs1)c1cc2ccccc2oc1=O [Compound 12, (E)-3-(1-(2-(4-(3,4-Dichlorophenyl)thiazol-2-yl)hydrazono)ethyl)-2H-chromen-2-one]		No Inhibition		
